From ChEMBL document CHEMBL1201862, “PubChem BioAssay data set” (2004)
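Compound exposure: 48 hours, 5 concentrations, 96-well plates. GI50: concentration for 50% inhibition of growth.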 The source made the active and inactive calls. Cut-off read from the data, not from the text of the source: active = GI50 up to about 1.1 µM and inactive = higher.

How the values were obtained:
Assay in all cases: NCI tumour cell line growth inhibition, 48 h
ACHN = system: ACHN
NCI-H226 = system: NCI-H226
SK-MEL-28 = system: SK-MEL-28
LOX IMVI = system: LOX IMVI
MDA-N = system: MDA-N
IGROV-1 = system: IGROV-1
MDA-MB-231 = system: MDA-MB-231
U-251 = system: U-251
MCF7 = system: MCF7
TK-10 = system: TK-10
SK-OV-3 = system: SK-OV-3
RXF 393 = system: RXF 393
HOP-62 = system: HOP-62
SN12C = system: SN12C
Hs-578T = system: Hs-578T
MDA-MB-435 = system: MDA-MB-435
UACC-62 = system: UACC-62
PC-3 = system: PC-3
OVCAR-4 = system: OVCAR-4
HT-29 = system: HT-29

Row | SMILES | GI50 (ACHN) | GI50 (NCI-H226) | GI50 (SK-MEL-28) | GI50 (LOX IMVI) | GI50 (MDA-N) | GI50 (IGROV-1) | GI50 (MDA-MB-231) | GI50 (U-251) | GI50 (MCF7) | GI50 (TK-10) | GI50 (SK-OV-3) | GI50 (RXF 393) | GI50 (HOP-62) | GI50 (SN12C) | GI50 (Hs-578T) | GI50 (MDA-MB-435) | GI50 (UACC-62) | GI50 (PC-3) | GI50 (OVCAR-4) | GI50 (HT-29)
1 | CC(=O)OCC1OC(OC2CC3C(C)(C)C(=O)CC[C@]3(C)C3CC[C@]45C[C@]4(CCC5[C@@H](C)CC(O)C(O)C(C)(C)O)[C@]23C)C(O)C(O)C1O (stereo not given in full) | 16.4 µM (inactive) | 16.5 µM (inactive) | 3.24 µM (inactive) | 3.72 µM (inactive) | 10.7 µM (inactive) | 11.1 µM (inactive) | 6.44 µM (inactive) | 8.13 µM (inactive) | 4.78 µM (inactive) | 14.6 µM (inactive) | 15.5 µM (inactive) | 10 µM (inactive) | 19.3 µM (inactive) | 13.4 µM (inactive) | 10.4 µM (inactive) | 8.99 µM (inactive) | 10.5 µM (inactive) | 9.82 µM (inactive) | 12.7 µM (inactive) | 4.23 µM (inactive)
2 | Cc1cccc2c1C(=O)C(C1OC(=O)c3ccccc31)C2 (stereo not given) | > 100 µM (inactive) | > 100 µM (inactive) | > 100 µM (inactive) | > 100 µM (inactive) | > 100 µM (inactive) | > 100 µM (inactive) | > 100 µM (inactive) | 61 µM (inactive) | > 100 µM (inactive) | > 100 µM (inactive) | > 100 µM (inactive) | 45.6 µM (inactive) | > 100 µM (inactive) | > 100 µM (inactive) | 43.9 µM (inactive) | > 100 µM (inactive) | 45.7 µM (inactive) | > 100 µM (inactive) | > 100 µM (inactive) | > 100 µM (inactive)
3 | CC(=O)n1nc(-c2nc3ccccc3nc2Cl)cc1Cl | 11.6 µM (inactive) | 10.3 µM (inactive) | 24.7 µM (inactive) | 5.47 µM (inactive) | 8.36 µM (inactive) | 30.1 µM (inactive) | 28.8 µM (inactive) | 26.3 µM (inactive) | 26.9 µM (inactive) | 37.4 µM (inactive) | 20.5 µM (inactive) | 40.7 µM (inactive) | 20.3 µM (inactive) | 7.78 µM (inactive) | 34.5 µM (inactive) | 3.94 µM (inactive) | 27.2 µM (inactive) | 30.9 µM (inactive) | 19.5 µM (inactive) | 23 µM (inactive)
4 | CCOC(=O)/C(C(=O)Nc1cccc(C(F)(F)F)c1)=C(/N)N1CCOCC1 | > 100 µM (inactive) | 86.9 µM (inactive) | > 100 µM (inactive) | > 100 µM (inactive) | > 100 µM (inactive) | > 100 µM (inactive) | > 100 µM (inactive) | > 100 µM (inactive) | > 100 µM (inactive) | > 100 µM (inactive) | > 100 µM (inactive) | > 100 µM (inactive) | > 100 µM (inactive) | > 100 µM (inactive) | > 100 µM (inactive) | > 100 µM (inactive) | > 100 µM (inactive) | > 100 µM (inactive) | > 100 µM (inactive) | > 100 µM (inactive)
5 | N#Cc1c(-c2ccccc2)cc(-c2ccc(Cl)cc2)[nH]c1=S | 21.5 µM (inactive) | 25.6 µM (inactive) | 20.3 µM (inactive) | 25.5 µM (inactive) | 34.5 µM (inactive) | 26.7 µM (inactive) | 23.4 µM (inactive) | 21.3 µM (inactive) | 23.4 µM (inactive) | 45.9 µM (inactive) | 27.4 µM (inactive) | 34 µM (inactive) | 50.1 µM (inactive) | 39.5 µM (inactive) | 38.8 µM (inactive) | 14.3 µM (inactive) | 27.9 µM (inactive) | 27.1 µM (inactive) | 42.6 µM (inactive) | 37 µM (inactive)
6 | C=CCN1C(=O)CC2[C@@H]3CCc4cc(O)ccc4C3CC[C@]2(C)C1=O (stereo not given in full) | > 10 µM (inactive) | > 10 µM (inactive) | > 10 µM (inactive) | > 10 µM (inactive) | > 10 µM (inactive) | > 10 µM (inactive) | > 10 µM (inactive) | > 10 µM (inactive) | > 10 µM (inactive) | > 10 µM (inactive) | > 10 µM (inactive) | > 10 µM (inactive) | > 10 µM (inactive) | > 10 µM (inactive) | > 10 µM (inactive) | > 10 µM (inactive) | > 10 µM (inactive) | > 10 µM (inactive) | > 10 µM (inactive) | > 10 µM (inactive)
7 | NC(=O)NC(=O)c1cccc(NC(=O)CCl)c1 | 2.56 µM (inactive) | 2.19 µM (inactive) | 7 µM (inactive) | 0.465 µM (active) | 0.385 µM (active) | 2.79 µM (inactive) | 2.79 µM (inactive) | 0.975 µM (active) | 0.989 µM (active) | 1.35 µM (inactive) | 1.45 µM (inactive) | 1.04 µM (active) | 1.61 µM (inactive) | 1.43 µM (inactive) | 3.9 µM (inactive) | 0.518 µM (active) | 0.687 µM (active) | 1.08 µM (active) | 2.19 µM (inactive) | 0.883 µM (active)
8 | COC1(OC)C2(Cl)C(Cl)=C(Cl)C1(Cl)C1c3ccc(C(C)=O)c4cccc(c34)C12 (stereo not given) | 19 µM (inactive) | 17 µM (inactive) | 42.8 µM (inactive) | 22.5 µM (inactive) | 14.8 µM (inactive) | > 94.6 µM (inactive) | 9.73 µM (inactive) | 30.3 µM (inactive) | 5.5 µM (inactive) | 71 µM (inactive) | 52.1 µM (inactive) | 27.7 µM (inactive) | 63.4 µM (inactive) | 10.6 µM (inactive) | > 100 µM (inactive) | 7.67 µM (inactive) | 23.5 µM (inactive) | 14.2 µM (inactive) | 27.9 µM (inactive) | 5.24 µM (inactive)
9 | NNC1=NC(=O)NC(=O)C1 | > 100 µM (inactive) | > 100 µM (inactive) | > 100 µM (inactive) | > 100 µM (inactive) | > 100 µM (inactive) | > 100 µM (inactive) | > 100 µM (inactive) | > 100 µM (inactive) | > 100 µM (inactive) | > 100 µM (inactive) | > 100 µM (inactive) | > 100 µM (inactive) | > 100 µM (inactive) | > 100 µM (inactive) | > 100 µM (inactive) | > 100 µM (inactive) | > 100 µM (inactive) | > 100 µM (inactive) | > 100 µM (inactive) | > 100 µM (inactive)
10 | Nc1cc(O)c2c(c1O)C(=O)C=CC2=O | 12.3 µM (inactive) | 67.1 µM (inactive) | 17.7 µM (inactive) | 5.58 µM (inactive) | 6.1 µM (inactive) | 15.2 µM (inactive) | 13.6 µM (inactive) | 18.2 µM (inactive) | 7.13 µM (inactive) | 26.6 µM (inactive) | 47 µM (inactive) | 6.93 µM (inactive) | 27.3 µM (inactive) | 16.1 µM (inactive) | 26.5 µM (inactive) | 6.1 µM (inactive) | 11.4 µM (inactive) | 19.5 µM (inactive) | 10.8 µM (inactive) | 4.55 µM (inactive)
11 | O=C1C=CC(=O)c2c(O)c(N3CCN(c4ccccn4)CC3)cc(O)c21 | 6.89 µM (inactive) | 45.7 µM (inactive) | 13.7 µM (inactive) | 3.95 µM (inactive) | 2.41 µM (inactive) | 10.1 µM (inactive) | 13 µM (inactive) | 5.64 µM (inactive) | 3.11 µM (inactive) | 34.7 µM (inactive) | 28.1 µM (inactive) | 7.26 µM (inactive) | 21 µM (inactive) | 7.6 µM (inactive) | 16.1 µM (inactive) | 0.851 µM (active) | 5.9 µM (inactive) | 16.2 µM (inactive) | 11.6 µM (inactive) | 4.3 µM (inactive)
12 | O=C(CSc1nc2ccc(I)cc2c(=O)n1Cc1ccccc1)N/N=C/c1ccccc1 | 21.7 µM (inactive) | 29.9 µM (inactive) | > 100 µM (inactive) | 41.7 µM (inactive) | > 100 µM (inactive) | 14.8 µM (inactive) | 8.2 µM (inactive) | 11.4 µM (inactive) | 25.2 µM (inactive) | 15.2 µM (inactive) | 10.4 µM (inactive) | 8.13 µM (inactive) | 6.82 µM (inactive) | 66.1 µM (inactive) | 1.01 µM (active) | > 100 µM (inactive) | 39.2 µM (inactive) | 10.3 µM (inactive) | 34.2 µM (inactive) | 47.6 µM (inactive)
13 | S=c1[nH]nc(Cc2ccccc2)c(=S)[nH]1 | 4.8 µM (inactive) | > 95.3 µM (inactive) | > 68.2 µM (inactive) | > 52.7 µM (inactive) | 98.6 µM (inactive) | > 53.1 µM (inactive) | 26.1 µM (inactive) | > 55.1 µM (inactive) | 55.8 µM (inactive) | > 56 µM (inactive) | > 81.5 µM (inactive) | 32.8 µM (inactive) | > 75 µM (inactive) | 65.3 µM (inactive) | 33 µM (inactive) | 63 µM (inactive) | > 25.9 µM (inactive) | 24.9 µM (inactive) | > 60.7 µM (inactive) | > 51.8 µM (inactive)
14 | N#CSCc1cccc(Nc2cc(=O)[nH]c(=O)[nH]2)c1 | > 100 µM (inactive) | 48.3 µM (inactive) | 57.8 µM (inactive) | 92.3 µM (inactive) | 52.4 µM (inactive) | > 100 µM (inactive) | > 100 µM (inactive) | 94.4 µM (inactive) | 7.23 µM (inactive) | > 100 µM (inactive) | > 100 µM (inactive) | > 100 µM (inactive) | > 100 µM (inactive) | > 100 µM (inactive) | 46.8 µM (inactive) | > 100 µM (inactive) | 26.7 µM (inactive) | > 100 µM (inactive) | 31.3 µM (inactive) | 37.2 µM (inactive)
